Data taken from patent EP3388439A1, “BIOTIN-CONJUGATED N-ACETYL GLYCOL SPLIT HEPARIN” (Leadiant Biosciences SA, priority 2017, dated 2018).

Key:
[1] = system: U87MG (human glioblastoma astrocytoma); test: Cell adhesion assay on matrigel coated wells; assay type: cell-based; conditions: treated 18-20h
Procedure: Cell surface, non-integrin molecules such as heparan sulfate proteoglycans (HSPGs) may be involved in the regulation of early adhesive stages of cell-ECM interactions. A cell adhesion assay has been employed to determine if the newly designed heparanase inhibitors were able to interfere with adhesion properties of cancer cells.
For the assay set-up, U87MG (human glioblastoma astrocytoma) cells were treated for 18-20h with test compounds, in complete medium supplemented with 10% FCS. Then, cells were collected, washed in complete medium, and added to matrigel coated wells in triplicate, at previously identified optimal seeding density, and incubated at 37 °C in complete medium for times ranging from 15 minutes to 4h (Goldshmidt et al, FASEB, 2003). After incubation, the wells were washed three times with serum-free medium and the remaining firmly attached cells were stained with crystal violet 0.1 reagent. Optical density was measure at 500 nm by Victor 3 (Perkin-Elmer) plate analyzer. Each experiment was repeated three times.

heparanase = target: T1, heparanase (Homo sapiens, UniProt Q9Y251); test: Fondaparinux heparanase assay (AGA*IA assay), colorimetric WST-1; assay type: biochemical; conditions: 2.5 nM heparanase, 100 µM fondaparinux, pH 5.0, 3 h at 37°C
T1 sequence (Q9Y251 158-543 limits assumed): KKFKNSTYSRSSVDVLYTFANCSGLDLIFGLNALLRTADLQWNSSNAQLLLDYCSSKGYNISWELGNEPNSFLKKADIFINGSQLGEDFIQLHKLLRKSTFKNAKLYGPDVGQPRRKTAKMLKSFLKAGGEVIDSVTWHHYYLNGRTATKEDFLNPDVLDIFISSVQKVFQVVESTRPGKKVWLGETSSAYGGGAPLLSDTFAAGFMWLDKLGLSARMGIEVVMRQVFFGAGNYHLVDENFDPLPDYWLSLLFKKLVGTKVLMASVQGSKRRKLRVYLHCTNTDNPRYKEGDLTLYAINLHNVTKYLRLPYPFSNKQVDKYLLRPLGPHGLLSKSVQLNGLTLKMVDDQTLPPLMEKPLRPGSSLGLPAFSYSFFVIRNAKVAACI
T1 sequence (Q9Y251 36-109 limits assumed): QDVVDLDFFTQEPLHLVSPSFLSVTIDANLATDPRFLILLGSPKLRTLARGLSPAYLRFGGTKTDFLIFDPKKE
Procedure: In order to determinate their activity as potent heparanase inhibitor, compounds were tested in a simple, accurate and robust microplate assay based on the cleavage of the synthetic heparin fragment, the pentasaccharide Fondaparinux (AGA*IA). This assay was originally developed by Hammond and coworkers [Hammond E, Li CP, Ferro V. Development of a colorimetric assay for heparanase activity suitable for kinetic analysis and inhibitor screening. Anal. Biochem. 2010, 396(1), 112-116], where Fondaparinux corresponds to the methyl glycoside of the antithrombin III (ATIII)-activating pentasaccharide sequence of heparin. Fondaparinux is cleaved by heparanase to generate a reducing disaccharide, which can be quantitatively measured via a colorimetric or a fluorescence assay, the last by the fluorescent sensor polymer-H [Schiemann S, Lühn S, Alban S. Development of both colorimetric and fluorescence heparinase activity assays using fondaparinux as substrate. […]
Assay was carried out with 100 µl/well of assay solution containing 40 mM sodium acetate buffer (pH 5.0), 100 µM fondaparinux, 2.5 nM heparanase and serial dilutions of test compounds (tested in triplicate). […] Then, the absorbance at 560 nm was measured through a microplate reader (Victor 3, Perkin Elmer).
Finally, the measurements were corrected by subtracting both the reagent background and the inner absorbance value of test compound. […]

[2] = system: luciferase-labelled CAG myeloma cells; conditions: NOD/SCID mice, 1000 µg/mouse intraperitoneal twice a day from day 9 to day 29; Figure 2
Procedure: Briefly, luciferase-labelled CAG myeloma cells (5x106; same cells) were injected subcutaneously into NOD/SCID mice (n=5). Mice were treated with compounds (1000 µg/mouse, injected intraperitoneal twice a day, starting on day 9 of cell inoculation).
Mice were injected with cells on day ONE and the first injection of compounds was given starting on day NINE, twice a day, including weekends. Tumor growth was examined by IVIS imaging prior to the first injection of compounds and once a week thereafter. The experiment was terminated on day TWENTYNINE (Figure 2).
IVIS imaging. Bioluminescent imaging of the luciferase-expressing tumors was performed with a highly sensitive, cooled charge coupled device (CCD) camera mounted in a light-tight specimen box (IVIS; Xenogen Corp., Waltham, MA). Briefly, mice were injected intraperitoneally with D-luciferin substrate at 150 mg/kg, anesthetized and placed onto a stage inside the light-tight camera box, with continuous exposure to isoflurane (EZAnesthesia, Palmer, PA). Light emitted from the bioluminescent cells was detected by the IVIS camera system with images quantified for tumor burden using a log-scale color range set at 5×10^4 to 1×10^7 and measurement of total photon counts per second (PPS) using Living Image software (Xenogen).

[3] = system: U87MG (human glioblastoma astrocytoma); test: SRB Cell Cytotoxicity Assay; assay type: cell-based; conditions: 72h
Description: (§1) SRB Cell Cytotoxicity Assay is based on the quantitative staining of cellular proteins by sulforhodamine B (SRB). This assay can be used for high-throughput drug screening (Vichai & Kirkitara, Nature Protocol. 2006, 1, 112). Sulforhodamine B is an anionic aminoxanthene dye that forms an electrostatic complex with the basic amino acid residues of proteins under moderately acid conditions, which provides a sensitive linear response.
(§2) To assess a putative antiproliferative activity of the selected compounds, HT1080 (human fibrosarcoma), U87MG (human glioblastoma astrocytoma) and U2OS (human osteosarcoma) cell lines were treated for 72h, in triplicate, with increasing concentrations of heparanase inhibitors. Inhibition of cell proliferation was then measured by the classical colorimetric SRB Cell Cytotoxicity assay. Absorbance was measured by spectrophotometer at a wavelength of 510 nm and cell proliferation was determined as percent with respect to control cells (cells treated with the vehicle alone). EC50 values were then determined by GraphPad Prism.
(§3) Results are summarized in the following Table 3, reporting the ability of anti-heparanase agents (test compounds) to reduce tumor growth (cytotoxic effect) on three tumor cell lines, evaluated at three concentrations. Results were expressed as a percentage of growth versus control.

[4] = system: HT1080 (human fibrosarcoma); test: SRB Cell Cytotoxicity Assay; assay type: cell-based; conditions: 72h
Description: as §1, §2, §3

[5] = system: U2OS (human osteosarcoma); test: SRB Cell Cytotoxicity Assay; assay type: cell-based; conditions: 72h
Description: as §1, §2, §3

Substance	Test compounds adhesion versus basal (100%) ([1]; 0.1 µM) [%]	Test compounds adhesion versus basal (100%) ([1]; 1 µM) [%]	Test compounds adhesion versus basal (100%) ([1]; 10 µM) [%]	IC50 (heparanase) [nM]	inhibition of CAG myeloma cell growth [2]	Percentage tumor growth versus control U87MG ([3]; 11.1 µM) [%]	Percentage tumor growth versus control U87MG ([3]; 33.3 µM) [%]	Percentage tumor growth versus control U87MG ([3]; 100 µM) [%]	Percentage tumor growth versus control HT1080 ([4]; 11.1 µM)	Percentage tumor growth versus control HT1080 ([4]; 33.3 µM)	Percentage tumor growth versus control HT1080 ([4]; 100 µM) [%]	Percentage tumor growth versus control U2OS ([5]; 11.1 µM) [%]	Percentage tumor growth versus control U2OS ([5]; 33.3 µM) [%]	Percentage tumor growth versus control U2OS ([5]; 100 µM) [%]
N-desulfated N-acetylated glycol split heparin -(GGGS)3-NH-(CH2)5-NH-Biotin with a substitution degree on the R1 and/or R1' positions of about 7% [SST0761NA1]	57.55	13.25	21.46	~3	reached statistical significance	84.47	75.00	73.23	99.98%	98.83%	75.02	85.3	79.5	69.3
N-desulfated N-acetylated glycol split heparin -Reducing end-NH-CH2-1,2,3-Triazole-4, N-Glycine-CONH-(CH2)5-NH-Biotin with a substitution degree on the R3 position of about 2 % [SST0764NA1]	83.21	19.82	12.79	~4	–	90.61	86.29	76.44	~ 100%	~ 100%	95.15	80.70	76.00	66.90
